Where “and” joins values, the source holds several entries; their conditions need not be identical. Equal entries are not always repeated.
Test system: 922993-354-T-J3-PDC complex spheroids, viability, % test/control
Assay: Anticancer human tumor 922993-354-T-J3-PDC patient-derived endometrial carcinoma cell line growth inhibition [CLK]
Details: for viability, T/C: stronger effect = lower value
Method in brief: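 Patient-derived tumor cells grown as complex spheroids with HUVEC endothelial cells and mesenchymal stem cells, treated with drug combinations. Concentrations descend in half-log steps from near clinical Cmax, or from 10 microM if Cmax unknown.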

[1] = curve of first compound, second compound 0.0316 µM
[2] = curve of first compound, second compound 0.1 µM
[3] = curve of first compound, second compound 0.316 µM
[4] = curve of first compound, second compound 1 µM
[5] = curve of first compound, second compound 3.16 µM
[6] = curve of first compound, second compound 10 µM
[7] = second compound 0.0316 µM, first compound 0.0316 µM
[8] = second compound 0.0316 µM, first compound 0.1 µM
[9] = second compound 0.0316 µM, first compound 0.316 µM
[10] = second compound 0.0316 µM, first compound 1 µM
[11] = second compound 0.0316 µM, first compound 3.16 µM
[12] = second compound 0.0316 µM, first compound 10 µM
[13] = second compound 0.1 µM, first compound 0.0316 µM
[14] = second compound 0.1 µM, first compound 0.1 µM
[15] = second compound 0.1 µM, first compound 0.316 µM
[16] = second compound 0.1 µM, first compound 1 µM
[17] = second compound 0.1 µM, first compound 3.16 µM
[18] = second compound 0.1 µM, first compound 10 µM
[19] = second compound 0.316 µM, first compound 0.0316 µM
[20] = second compound 0.316 µM, first compound 0.1 µM
[21] = second compound 0.316 µM, first compound 0.316 µM
[22] = second compound 0.316 µM, first compound 1 µM
[23] = second compound 0.316 µM, first compound 3.16 µM
[24] = second compound 0.316 µM, first compound 10 µM
[25] = second compound 1 µM, first compound 0.0316 µM
[26] = second compound 1 µM, first compound 0.1 µM
[27] = second compound 1 µM, first compound 0.316 µM
[28] = second compound 1 µM, first compound 1 µM
[29] = second compound 1 µM, first compound 3.16 µM
[30] = second compound 1 µM, first compound 10 µM
[31] = second compound 3.16 µM, first compound 0.0316 µM
[32] = second compound 3.16 µM, first compound 0.1 µM
[33] = second compound 3.16 µM, first compound 0.316 µM
[34] = second compound 3.16 µM, first compound 1 µM
[35] = second compound 3.16 µM, first compound 3.16 µM
[36] = second compound 3.16 µM, first compound 10 µM
[37] = second compound 10 µM, first compound 0.0316 µM
[38] = second compound 10 µM, first compound 0.1 µM
[39] = second compound 10 µM, first compound 0.316 µM
[40] = second compound 10 µM, first compound 1 µM
[41] = second compound 10 µM, first compound 3.16 µM
[42] = second compound 10 µM, first compound 10 µM
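Further: spheroids exposed to the agents for 7 days before readout.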

For `NC(=O)C(=Cn1cnc(-c2cc(C(F)(F)F)cc(C(F)(F)F)c2)n1)c1cncnc1`, the viability, T/C (compound 0.00949 µM) was 99% and 121%, the viability, T/C (compound 0.03 µM) was 107% and 106% and the viability, T/C (compound 0.0949 µM) was 64.8% and 96.1%. The viability, T/C (compound 0.3 µM) was 47.6% and 68.7%, the viability, T/C (compound 0.949 µM) was 46.4% and 56.8% and the viability, T/C (compound 3 µM) was 24.8% and 32.5%. The IC50 (curve of compound) was 187 nM and 1170 nM.

With `Nc1ccccc1NC(=O)c1ccc(CNC(=O)OCc2cccnc2)cc1` + CN1CCN(c2cc(C(=O)Nc3cc4cc(-c5cnn(C)c5)ccc4cn3)ccn2)CC1 the IC50 [1] was over 10000 nM, the IC50 [2] was 4690 nM and the IC50 [3] was under 31.6 nM. It also gave an IC50 [4] of under 31.6 nM, an IC50 [5] of under 31.6 nM and an IC50 [6] of under 31.6 nM. The viability, T/C [7] was 111%, the viability, T/C [8] was 114% and the viability, T/C [9] was 103%. For the same molecule, the viability, T/C [10] was 90.3%, the viability, T/C [11] was 62% and the viability, T/C [12] was 51.9%. It also gave a viability, T/C [13] of 103%, a viability, T/C [14] of 97.2% and a viability, T/C [15] of 83.8%. It also gave a viability, T/C [16] of 60.1%, a viability, T/C [17] of 59.6% and a viability, T/C [18] of 41.7%. The viability, T/C [19] was 39.8%, the viability, T/C [20] was 29.3% and the viability, T/C [21] was 31.7%. The viability, T/C [22] was 33%, the viability, T/C [23] was 6.16% and the viability, T/C [24] was 1.51%. For the same molecule, the viability, T/C [25] was 0.15%, the viability, T/C [26] was 1.32% and the viability, T/C [27] was 0.79%. It also gave a viability, T/C [28] of 0.09%, a viability, T/C [29] of 0.26% and a viability, T/C [30] of 1.83%. It also gave a viability, T/C [31] of 0.61%, a viability, T/C [32] of 0.12% and a viability, T/C [33] of 1.29%. It also gave a viability, T/C [34] of 0.65%, a viability, T/C [35] of 1.19% and a viability, T/C [36] of 1.23%. For the same molecule, the viability, T/C [37] was 0.11%, the viability, T/C [38] was 0.14% and the viability, T/C [39] was 2.33%. For the same molecule, the viability, T/C [40] was 0.14%, the viability, T/C [41] was 2.41% and the viability, T/C [42] was 2.96%.

For `CCCS(=O)(=O)Nc1ccc(F)c(C(=O)c2c[nH]c3ncc(-c4ccc(Cl)cc4)cc23)c1F`, the viability, T/C (compound 0.0316 µM) was 113% and 92.8%, the viability, T/C (compound 0.1 µM) was 79.7% and 76.8% and the viability, T/C (compound 0.316 µM) was 97.7% and 113%. For the same molecule, the viability, T/C (compound 1 µM) was 111% and 94.1%, the viability, T/C (compound 3.16 µM) was 65.2% and 95.7% and the viability, T/C (compound 10 µM) was 59% and 65.5%. For the same molecule, the IC50 (curve of compound) was over 10000 nM.

In the case of `CN1CCN(c2cc(C(=O)Nc3cc4cc(-c5cnn(C)c5)ccc4cn3)ccn2)CC1`, the viability, T/C (compound 0.1 µM) is reported as 97.6% [middle of 12 runs], the viability, T/C (compound 1 µM) is reported as 1.97% [middle of 12 runs] and the viability, T/C (compound 3.16 µM) is reported as 0.81% [middle of 12 runs]. For the same molecule, the viability, T/C (compound 10 µM) was 0.24% [middle of 12 runs] and the IC50 (compound alone, run of 09/18/2023) was 266 nM [middle of 12 runs].

`CC(CO)NC(=O)c1cc(-c2ccc(Cl)cc2)nn(-c2cnn(C)c2)c1=O` (stereo not drawn) + CNC(=O)c1ccc(Nc2nc(OC3CCCC3)c3c(-c4ccc5nc(C)oc5c4)c[nH]c3n2)c(OC)c1 showed an IC50 [1] of over 10000 nM, an IC50 [2] of over 10000 nM and an IC50 [3] of over 10000 nM. It also gave an IC50 [4] of under 31.6 nM, an IC50 [5] of under 31.6 nM and an IC50 [6] of under 31.6 nM. The viability, T/C [7] was 108%, the viability, T/C [8] was 100% and the viability, T/C [9] was 101%. For the same molecule, the viability, T/C [10] was 101%, the viability, T/C [11] was 102% and the viability, T/C [12] was 98.6%. The viability, T/C [13] was 113%, the viability, T/C [14] was 102% and the viability, T/C [15] was 91.3%. For the same molecule, the viability, T/C [16] was 103%, the viability, T/C [17] was 118% and the viability, T/C [18] was 75.4%. It also gave a viability, T/C [19] of 59%, a viability, T/C [20] of 57.4% and a viability, T/C [21] of 56.9%. The viability, T/C [22] was 48%, the viability, T/C [23] was 59.3% and the viability, T/C [24] was 57.8%. The viability, T/C [25] was 38.9%, the viability, T/C [26] was 34% and the viability, T/C [27] was 33.5%. It also gave a viability, T/C [28] of 39.9%, a viability, T/C [29] of 47.7% and a viability, T/C [30] of 34.3%. It also gave a viability, T/C [31] of 30.5%, a viability, T/C [32] of 31% and a viability, T/C [33] of 30%. It also gave a viability, T/C [34] of 30.9%, a viability, T/C [35] of 37.9% and a viability, T/C [36] of 36%. The viability, T/C [37] was 34.2%, the viability, T/C [38] was 30.3% and the viability, T/C [39] was 29.9%. It also gave a viability, T/C [40] of 26.9%, a viability, T/C [41] of 32.5% and a viability, T/C [42] of 30.7%.

— PubChem BioAssay AID2060606 (Molecular Pharmacology Branch, DTP, NCI, 2025)
